Measurements taken from ChEMBL document CHEMBL6134887, “Linker and Head-Group Exploration of Anti-MRSA Triaromatic Pleuromutilins” (J Med Chem, 2025).
Values after ≈ are worked out from the molar mass of the structure shown.

Columns and labels:
[1] = Metabolic stability in mouse liver assessed as intrinsic clearance at 1 uM measured up to 60 mins by LC-MS/MS analysis; assay type: ADME, tissue-based; details: read-out: CLH
Staphylococcus aureus [2] = assay: Antibacterial activity against methicillin susceptible Staphylococcus aureus ATCC 29213 assessed as inhibition of bacterial growth incubated for 20 to 24 hrs by microbroth serial dilution method; assay type: functional; details: time 20-24 hrs, read-out: MIC100
[3] = Metabolic stability in mouse liver microsomes assessed as half-life at 1 uM measured up to 60 mins by LC-MS/MS analysis; assay type: ADME, Microsome
Staphylococcus aureus [4] = assay: Antibacterial activity against methicillin susceptible Staphylococcus aureus ATCC 25923 assessed as inhibition of bacterial growth incubated for 20 to 24 hrs by microbroth serial dilution method; assay type: functional; details: time 20-24 hrs, read-out: MIC100
[5] = Metabolic stability in human liver assessed as intrinsic clearance at 1 uM measured up to 30 mins by LC-MS/MS analysis; assay type: ADME, tissue-based; details: read-out: CLH
[6] = Metabolic stability in human liver microsomes assessed as half-life at 1 uM measured up to 30 mins by LC-MS/MS analysis; assay type: ADME, Microsome
Staphylococcus aureus [7] = assay: Antibacterial activity against methicillin resistant Staphylococcus aureus USA300 FPR3757 assessed as inhibition of bacterial growth incubated for 20 to 24 hrs by microbroth serial dilution method; assay type: functional; details: time 20-24 hrs, read-out: MIC100
Enterococcus faecium [8] = assay: Antibacterial activity against vancomycin, ampicillin and ciprofloxacin resistant Enterococcus faecium clinical isolate 1 assessed as inhibition of bacterial growth incubated for 20 to 24 hrs by microbroth serial dilution method; assay type: functional; details: time 20-24 hrs, read-out: MIC100
Streptococcus pneumoniae = assay: Antibacterial activity against Streptococcus pneumoniae assessed as inhibition of bacterial growth incubated for 20 to 24 hrs by microbroth serial dilution method; assay type: functional; details: time 20-24 hrs, read-out: MIC100
Enterococcus faecalis = assay: Antibacterial activity against Enterococcus faecalis assessed as inhibition of bacterial growth incubated for 20 to 24 hrs by microbroth serial dilution method; assay type: functional; details: time 20-24 hrs, read-out: MIC100
Enterococcus faecium [9] = assay: Antibacterial activity against vancomycin, ampicillin and ciprofloxacin resistant Enterococcus faecium clinical isolate 5 assessed as inhibition of bacterial growth incubated for 20 to 24 hrs by microbroth serial dilution method; assay type: functional; details: time 20-24 hrs, read-out: MIC100
Caco-2 = assay: Cytotoxicity against human Caco-2 cells assessed as reduction in cell viability at 1 to 10 uM measured after 1 to 8 days by Celltiter-Glo reagent based assay; assay type: toxicity; details: caco-2, 10 µM, dose lower 1 µM, time lower 1 day, dose upper 10 µM, time upper 8 day
Staphylococcus aureus [10] = assay: Antibacterial activity against methicillin resistant Staphylococcus aureus clinical isolate 933010 assessed as inhibition of bacterial growth incubated for 20 to 24 hrs by microbroth serial dilution method; assay type: functional; details: time 20-24 hrs, read-out: MIC100
Staphylococcus aureus [11] = assay: Antibacterial activity against mupirocin resistant Staphylococcus aureus 4828 assessed as inhibition of bacterial growth incubated for 20 to 24 hrs by microbroth serial dilution method; assay type: functional; details: time 20-24 hrs, read-out: MIC100
DU-145 = assay: Cytotoxicity against human DU-145 cells assessed as reduction in cell viability at 1 to 10 uM measured after 3 hrs by Celltiter-Glo reagent based assay; assay type: toxicity; details: du-145, 3 h, dose 1-10 µM
Staphylococcus aureus [12] = assay: Antibacterial activity against methicillin resistant Staphylococcus aureus clinical isolate 55508 assessed as inhibition of bacterial growth incubated for 20 to 24 hrs by microbroth serial dilution method; assay type: functional; details: time 20-24 hrs, read-out: MIC100
MDCK-MDR1 = assay: Cytotoxicity against MDCKII-MDR1 cells assessed as reduction in cell viability at 1 to 10 uM measured after 3 hrs by Celltiter-Glo reagent based assay; assay type: toxicity, Canis lupus familiaris; details: dog, mdck-mdr1, 3 h, dose 1-10 µM
Staphylococcus aureus [13] = assay: Antibacterial activity against methicillin resistant Staphylococcus aureus clinical isolate 52518 assessed as inhibition of bacterial growth incubated for 20 to 24 hrs by microbroth serial dilution method; assay type: functional; details: time 20-24 hrs, read-out: MIC100

| Structure (SMILES) | CLint scaled at 1 µM [1] [L/h/kg] | MIC (Staphylococcus aureus [2]) [µg/mL] | half-life at 1 µM [3] [min] | MIC (Staphylococcus aureus [4]) [µg/mL] | CLint scaled at 1 µM [5] [L/h/kg] | half-life at 1 µM [6] [min] | MIC (Staphylococcus aureus [7]) [µg/mL] | MIC (Enterococcus faecium [8]) [µg/mL] | MIC (Streptococcus pneumoniae) [µg/mL] | MIC (Enterococcus faecalis) [µg/mL] | MIC (Enterococcus faecium [9]) [µg/mL] | Activity (Caco-2) | MIC (Staphylococcus aureus [10]) [µg/mL] | MIC (Staphylococcus aureus [11]) [µg/mL] | Activity (DU-145) | MIC (Staphylococcus aureus [12]) [µg/mL] | Activity (MDCK-MDR1) | MIC (Staphylococcus aureus [13]) [µg/mL] |
| --- | --- | --- | --- | --- | --- | --- | --- | --- | --- | --- | --- | --- | --- | --- | --- | --- | --- | --- |
| C=C[C@]1(C)C[C@@H](OC(=O)CS[C@@H]2CC[C@@H](N)C[C@H]2O)[C@]2(C)[C@H](C)CC[C@]3(CCC(=O)[C@H]32)[C@@H](C)[C@@H]1O [LEFAMULIN] | 28.7 | 0.25 (≈ 0.492 µM) | 11.5 | 0.12 (≈ 0.236 µM) |  |  |  |  |  |  |  |  |  |  |  |  |  |  |
| C=C[C@]1(C)C[C@@H](OC(=O)Cn2cc(-c3ccc(Cn4ccc5c(N)ncnc54)c(OC)c3)nn2)[C@]2(C)[C@H](C)CC[C@]3(CCC(=O)[C@H]32)[C@@H](C)[C@@H]1O | 486 |  | 0.68 |  | 310 | 1.2 | 0.12 (≈ 0.176 µM) |  |  |  |  |  |  |  |  |  |  |  |
| C=C[C@]1(C)C[C@@H](OC(=O)Cn2cc(-c3ccc(Cn4ccnc4)nc3)nn2)[C@]2(C)[C@H](C)CC[C@]3(CCC(=O)[C@H]32)[C@@H](C)[C@@H]1O | 140 |  | 2.4 |  | 60.3 | 6.2 | 1 (≈ 1.7 µM) |  |  |  |  |  |  |  |  |  |  |  |
| C=C[C@]1(C)C[C@@H](OC(=O)Cn2cc(-c3cccc(Nc4ncnc5[nH]cnc45)c3)nn2)[C@]2(C)[C@H](C)CC[C@]3(CCC(=O)[C@H]32)[C@@H](C)[C@@H]1O | 489 |  | 0.67 |  | 188 | 2 | 0.06 (≈ 0.0939 µM) | 0.25 (≈ 0.391 µM) | 0.5 (≈ 0.783 µM) | 0.5 (≈ 0.783 µM) | 0.25 (≈ 0.391 µM) |  |  |  |  |  |  |  |
| C=C[C@]1(C)C[C@@H](OC(=O)Cn2cc(-c3cccc(Nc4cc(N)ncn4)c3)nn2)[C@]2(C)[C@H](C)CC[C@]3(CCC(=O)[C@H]32)[C@@H](C)[C@@H]1O | 434 | 0.015 (≈ 0.0244 µM) | 0.76 | 0.25 (≈ 0.407 µM) | 94.9 | 3.9 | 0.03 (≈ 0.0489 µM) | 0.25 (≈ 0.407 µM) | 1 (≈ 1.63 µM) | 0.5 (≈ 0.815 µM) | 0.25 (≈ 0.407 µM) | Non-toxic | 0.12 (≈ 0.196 µM) | 0.12 (≈ 0.196 µM) | Non-toxic | 0.12 (≈ 0.196 µM) | Non-toxic | 0.06 (≈ 0.0978 µM) |
| C=C[C@]1(C)C[C@@H](OC(=O)CS[C@@H]2C[C@H]3CC[C@@H](C2)N3C)[C@]2(C)[C@H](C)CC[C@]3(CCC(=O)[C@H]32)[C@@H](C)[C@@H]1O [RETAPAMULIN] | 123 | 0.12 (≈ 0.232 µM) | 1.3 | 0.06 (≈ 0.116 µM) | 159 | 2.4 | 0.25 (≈ 0.483 µM) | 0.03 (≈ 0.0579 µM) | 0.06 (≈ 0.116 µM) | 0.12 (≈ 0.232 µM) | 0.03 (≈ 0.0579 µM) |  | 0.5 (≈ 0.966 µM) | 0.25 (≈ 0.483 µM) |  | 0.25 (≈ 0.483 µM) |  | 0.12 (≈ 0.232 µM) |
| C=C[C@]1(C)C[C@@H](OC(=O)Cn2cc(-c3ccc(Cn4cnc5c(N)ncnc54)cc3)nn2)[C@]2(C)[C@H](C)CC[C@]3(CCC(=O)[C@H]32)[C@@H](C)[C@@H]1O | > 600 | 0.03 (≈ 0.046 µM) | < 0.5 | 0.06 (≈ 0.0919 µM) |  |  |  |  |  |  |  |  | 0.25 (≈ 0.383 µM) | 0.06 (≈ 0.0919 µM) |  | 0.06 (≈ 0.0919 µM) |  | 0.03 (≈ 0.046 µM) |
| C=C[C@]1(C)C[C@@H](OC(=O)Cn2cc(-c3ccc(Nc4ncnc5[nH]cnc45)cc3)nn2)[C@]2(C)[C@H](C)CC[C@]3(CCC(=O)[C@H]32)[C@@H](C)[C@@H]1O | 187 |  | 1.76 |  | 17.8 | 23.4 | 0.12 (≈ 0.188 µM) |  |  |  |  |  |  |  |  |  |  |  |
| C=C[C@]1(C)C[C@@H](OC(=O)Cn2cc(-c3cncc(C(=O)Nc4ccc(N)nc4)c3)nn2)[C@]2(C)[C@H](C)CC[C@]3(CCC(=O)[C@H]32)[C@@H](C)[C@@H]1O | 546 |  | 0.6 |  |  |  | 0.25 (≈ 0.39 µM) | 1 (≈ 1.56 µM) | 1 (≈ 1.56 µM) | 1 (≈ 1.56 µM) | 1 (≈ 1.56 µM) |  |  |  |  |  |  |  |
